Measurements taken from patent US9932325B2 (Denali Therapeutics Inc., priority 2015, dated 2018).

Biological target: LRRK2 G2019S enzyme (Homo sapiens (Human), UniProt Q5S007, G2019S)
Assay: LRRK2 G2019S TR-FRET biochemical assay (LRRKtide substrate)
Conditions: 134 μM ATP
Procedure: Detection Reaction Conditions • 1× TR-FRET dilution buffer • 10 mM EDTA • 2 nM antibody • 23° C. reaction temperature • 10 μL total reaction volume
Compounds were prepared by initially diluting to 1 mM with DMSO. 35 μL of reference compound solution, 35 μL of test compound solution, and 35 μL HPE were successively added to the source plate (384-well assay plate, Labcyte). The plates were centrifuged at 2500 rpm for 1 minute and sealed in foil. […] The assay plate was centrifuged at 2500 rpm for 1 minute, and sealed with foil.
To perform the enzyme reaction, 5 μL of LRRKtide substrate and kinase mixture in assay buffer was added to all wells of the assay plate. The plate was centrifuged to concentrate the mixture at the bottom of the wells. The assay plate was incubated at 23° C. for 20 minutes. Following incubation, 5 μL of 2× ATP in assay buffer was added to each well, and plates were centrifuged to concentrate the mixture at the bottom of the wells. The plate was incubated at 23° C. for 60 minutes.
To perform the detection of the reaction, EDTA completely mixed in TR-FRET dilution buffer was added to antibody reagent. 10 μL of detection reagent was added to all wells of each well of the assay plate and the plate was centrifuged to concentrate the mixture at the bottom of the wells. The plate was then incubated at 23° C. for 60 minutes.

LRRK2 G2019S enzyme, sequence (Q5S007 whole entry G2019S): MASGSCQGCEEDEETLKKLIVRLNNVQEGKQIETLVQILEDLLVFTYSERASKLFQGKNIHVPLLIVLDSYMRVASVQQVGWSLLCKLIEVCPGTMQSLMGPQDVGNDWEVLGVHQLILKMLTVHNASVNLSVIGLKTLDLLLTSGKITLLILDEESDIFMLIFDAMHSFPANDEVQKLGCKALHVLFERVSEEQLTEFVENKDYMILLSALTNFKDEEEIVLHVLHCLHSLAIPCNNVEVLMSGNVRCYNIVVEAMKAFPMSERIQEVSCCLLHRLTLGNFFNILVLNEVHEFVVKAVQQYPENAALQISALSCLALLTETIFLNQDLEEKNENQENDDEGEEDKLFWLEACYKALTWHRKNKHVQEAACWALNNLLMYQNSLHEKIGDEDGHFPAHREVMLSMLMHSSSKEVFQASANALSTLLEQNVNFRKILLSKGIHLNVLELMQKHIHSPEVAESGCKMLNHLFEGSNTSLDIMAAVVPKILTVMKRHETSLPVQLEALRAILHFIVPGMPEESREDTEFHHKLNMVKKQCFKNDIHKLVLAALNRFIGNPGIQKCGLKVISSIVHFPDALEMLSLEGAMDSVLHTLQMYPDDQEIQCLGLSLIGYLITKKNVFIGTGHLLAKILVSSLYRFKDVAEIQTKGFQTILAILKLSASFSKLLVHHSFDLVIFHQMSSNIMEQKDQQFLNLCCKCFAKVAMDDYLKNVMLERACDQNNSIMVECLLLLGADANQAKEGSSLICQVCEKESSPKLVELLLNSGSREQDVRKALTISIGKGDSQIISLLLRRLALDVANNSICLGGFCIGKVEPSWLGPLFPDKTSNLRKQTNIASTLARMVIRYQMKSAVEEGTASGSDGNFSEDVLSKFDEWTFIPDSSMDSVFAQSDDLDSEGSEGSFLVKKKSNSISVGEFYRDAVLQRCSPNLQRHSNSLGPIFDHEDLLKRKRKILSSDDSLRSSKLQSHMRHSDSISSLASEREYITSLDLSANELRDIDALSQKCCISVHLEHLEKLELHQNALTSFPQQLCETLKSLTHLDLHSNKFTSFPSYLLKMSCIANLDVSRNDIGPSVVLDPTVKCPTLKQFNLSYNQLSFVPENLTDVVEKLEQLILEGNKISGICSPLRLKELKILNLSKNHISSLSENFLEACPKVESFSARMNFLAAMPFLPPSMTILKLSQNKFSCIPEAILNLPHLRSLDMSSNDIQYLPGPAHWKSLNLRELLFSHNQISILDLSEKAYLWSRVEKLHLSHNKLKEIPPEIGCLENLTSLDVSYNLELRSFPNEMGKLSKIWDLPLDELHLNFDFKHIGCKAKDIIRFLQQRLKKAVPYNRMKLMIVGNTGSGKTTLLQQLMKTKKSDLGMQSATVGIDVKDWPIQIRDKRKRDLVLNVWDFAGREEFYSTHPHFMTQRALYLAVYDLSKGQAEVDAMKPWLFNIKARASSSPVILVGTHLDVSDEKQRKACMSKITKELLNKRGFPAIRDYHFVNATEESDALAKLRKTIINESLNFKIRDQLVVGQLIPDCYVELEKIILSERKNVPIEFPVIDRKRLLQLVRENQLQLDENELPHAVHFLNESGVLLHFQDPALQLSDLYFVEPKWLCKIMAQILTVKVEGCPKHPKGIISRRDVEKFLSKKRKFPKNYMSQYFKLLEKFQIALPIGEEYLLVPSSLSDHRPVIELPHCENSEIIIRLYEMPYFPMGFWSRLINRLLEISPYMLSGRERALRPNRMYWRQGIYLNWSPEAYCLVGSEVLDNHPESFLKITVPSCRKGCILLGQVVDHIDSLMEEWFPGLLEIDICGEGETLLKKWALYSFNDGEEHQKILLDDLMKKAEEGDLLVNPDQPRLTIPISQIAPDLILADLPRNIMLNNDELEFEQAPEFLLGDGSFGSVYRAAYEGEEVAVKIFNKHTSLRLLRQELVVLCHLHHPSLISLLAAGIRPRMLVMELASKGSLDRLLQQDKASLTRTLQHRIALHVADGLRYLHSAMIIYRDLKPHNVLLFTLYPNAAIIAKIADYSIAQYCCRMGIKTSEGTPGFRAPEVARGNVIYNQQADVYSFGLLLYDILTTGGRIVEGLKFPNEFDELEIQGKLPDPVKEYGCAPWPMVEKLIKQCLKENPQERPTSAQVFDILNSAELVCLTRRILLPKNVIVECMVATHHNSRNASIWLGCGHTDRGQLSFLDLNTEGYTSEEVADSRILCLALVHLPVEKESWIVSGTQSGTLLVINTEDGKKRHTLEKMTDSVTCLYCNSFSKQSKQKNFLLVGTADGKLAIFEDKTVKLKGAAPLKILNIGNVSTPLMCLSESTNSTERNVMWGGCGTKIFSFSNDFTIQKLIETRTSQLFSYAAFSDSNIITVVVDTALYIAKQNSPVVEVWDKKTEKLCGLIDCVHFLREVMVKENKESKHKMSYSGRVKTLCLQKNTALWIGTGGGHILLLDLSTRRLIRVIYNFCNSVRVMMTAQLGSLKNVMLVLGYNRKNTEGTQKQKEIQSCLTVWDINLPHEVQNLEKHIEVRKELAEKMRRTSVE

Row | IC50 [nM] | SMILES
1 | > 60 | CCNc1nc(Nc2cc(C#N)nn2C2CC2)ncc1C(F)(F)F [Compound 133]
2 | < 30 | CCNc1nc(Nc2cc(C(C)(C)O)nn2C2CC2)ncc1C(F)(F)F [Compound 134]
3 | > 60 | CCNc1nc(Nc2cc(C(C)=O)nn2C2CC2)ncc1C(F)(F)F [Compound 135]
4 | 30 to 60 | CCNc1nc(Nc2cc(C3(C)CCC(=O)N3)nn2C2CC2)ncc1C(F)(F)F (stereo not drawn) [Compound 136]
5 | < 30 | CCNc1nc(Nc2cc(C(C)n3nccn3)nn2C2CC2)ncc1C(F)(F)F (stereo not drawn) [Compound 137]
6 | < 30 | CCNc1nc(Nc2cc(C(C)(C)S(C)(=O)=O)nn2C2CC2)ncc1C(F)(F)F [Compound 139]
7 | < 30 | CCNc1nc(Nc2cc(C(C)(C)S(C)(=O)=O)nn2C2CC2)ncc1Br [Compound 140]
8 | < 30 | CCNc1nc(Nc2cc(-c3ncoc3C)nn2C2CC2)ncc1C(F)(F)F [Compound 142]
9 | < 30 | CCNc1nc(Nc2cc([C@@]3(C)CCOC3=O)nn2C2CC2)ncc1C(F)(F)F [Compound 144, (3R)-3-[1-cyclopropyl-5-[[4-(ethylamino)-5-(trifluoromethyl)pyrimidin-2-yl]amino]pyrazol-3-yl]-3-methyl-tetrahydrofuran-2-one]
10 | < 30 | CCNc1nc(Nc2cc(C3(C)COC3)nn2C2CC2)ncc1C(F)(F)F [Compound 145]
11 | < 30 | CCNc1nc(Nc2cc(C(C)n3nccn3)nn2C2CC2)ncc1Br (stereo not drawn) [Compound 146]
12 | < 30 | CCNc1nc(Nc2cc(C3(C)COC3)nn2C2CC2)ncc1Br [Compound 148]
13 | 30 to 60 | CCNc1nc(Nc2cc(CN3CCCC3=O)nn2C2CC2)ncc1C(F)(F)F [Compound 149]
14 | < 30 | CCNc1nc(Nc2cc(C3(C)CCOC3=O)nn2C2CC2)ncc1Br (stereo not drawn) [Compound 151]
15 | < 30 | CCNc1nc(Nc2cc([C@H]3C[C@@H]3C#N)nn2C2CC2)ncc1C(F)(F)F [Compound 152]
16 | < 30 | CCNc1nc(Nc2cc(N3CCCC3=O)nn2C2CC2)ncc1C(F)(F)F [Compound 153, 1-(1-cyclopropyl-5-((4-(ethylamino)-5-(trifluoromethyl)pyrimidin-2-yl)amino)-1H-pyrazol-3-yl)pyrrolidin-2-one]
17 | < 30 | CCNc1nc(Nc2cc(N3CCCS3(=O)=O)nn2C2CC2)ncc1C(F)(F)F [Compound 154]
18 | < 30 | CNc1nc(Nc2cc(C3(C)CCOC3=O)nn2C2CC2)ncc1C(F)(F)F (stereo not drawn) [Compound 156]
19 | 30 to 60 | COc1nc(Nc2cc(C(C)(C)n3nccn3)nn2C2CC2)ncc1Br [Compound 157]
20 | < 30 | CCNc1nc(Nc2cc(N3CCCC3=O)nn2C2CC2)ncc1Br [Compound 158]
21 | < 30 | CCNc1nc(Nc2cc(N3CCCS3(=O)=O)nn2C2CC2)ncc1Br [Compound 159]
22 | < 30 | CCNc1nc(Nc2cc([C@@]34C[C@@H]3COC4=O)nn2C2CC2)ncc1C(F)(F)F [Compound 162, (1R,5S)-1-[1-cyclopropyl-5-[[4-(ethylamino)-5-(trifluoromethyl)pyrimidin-2-yl]amino]pyrazol-3-yl]-3-oxabicyclo[3.1.0]hexan-2-one]
23 | < 30 | CNc1nc(Nc2cc([C@@]34C[C@@H]3COC4=O)nn2C2CC2)ncc1C(F)(F)F [Compound 163]
24 | < 30 | CCNc1nc(Nc2cc([C@H]3C[C@H]3C#N)nn2C2CC2)ncc1C(F)(F)F [Compound 164]
25 | < 30 | CCNc1nc(Nc2cc([C@]34C[C@H]3COC4=O)nn2C2CC2)ncc1C(F)(F)F [Compound 165]
26 | > 60 | CCNc1nc(Nc2cc(C3(C)CCn4ccnc43)nn2C2CC2)ncc1C(F)(F)F (stereo not drawn) [Compound 166]
27 | < 30 | CCNc1nc(Nc2cc(C3(C)CCn4ccnc43)nn2C2CC2)ncc1C(F)(F)F (stereo not drawn) [Compound 167]
28 | < 30 | CCNc1nc(Nc2cc([C@H]3C[C@H]3C(=O)OCC)nn2C2CC2)ncc1C(F)(F)F [Compound 169]

Row | IC50 [nM] | SMILES
29 | < 30 | CCNc1nc(Nc2cc([C@H]3C[C@H]3C(N)=O)nn2C2CC2)ncc1C(F)(F)F [Compound 170]
30 | > 60 | CCNc1nc(Nc2cc(C3(C)CCn4ncnc43)nn2C2CC2)ncc1C(F)(F)F (stereo not drawn) [Compound 171]
31 | < 30 | [2H]C([2H])([2H])n1nc(C2(C)CCOC2=O)cc1Nc1ncc(C(F)(F)F)c(NCC)n1 (stereo not drawn) [Compound 173]
32 | < 30 | [2H]C([2H])([2H])n1nc(C2(C)CCOC2=O)cc1Nc1ncc(C(F)(F)F)c(NCC)n1 (stereo not drawn) [Compound 174]
33 | < 30 | [2H]C([2H])([2H])n1nc(C2(C)CCOC2=O)cc1Nc1ncc(C(F)(F)F)c(NC)n1 (stereo not drawn) [Compound 175]
34 | < 30 | [2H]C([2H])([2H])n1nc(C2(C)CCOC2=O)cc1Nc1ncc(C(F)(F)F)c(NC)n1 (stereo not drawn) [Compound 176]
35 | > 60 | CNc1nc(Nc2cc(C3(C)CCn4ccnc43)nn2C2CC2)ncc1C(F)(F)F (stereo not drawn) [Compound 177]
36 | < 30 | CNc1nc(Nc2cc(C3(C)CCn4ccnc43)nn2C2CC2)ncc1C(F)(F)F (stereo not drawn) [Compound 178]
37 | < 30 | CCNc1nc(Nc2ccnn2[C@H]2C[C@@H](O)C2)ncc1C(F)(F)F [Compound 179]
38 | 30 to 60 | CCNc1nc(Nc2ccnn2[C@H]2C[C@H](O)C2)ncc1C(F)(F)F [Compound 180]
39 | < 30 | CCNc1nc(Nc2ccnn2[C@H]2C[C@H](C#N)C2)ncc1C(F)(F)F [Compound 181, (1R,3R)-3-(5-((4-(ethylamino)-5-(trifluoromethyl)pyrimidin-2-yl)amino)-1H-pyrazol-1-yl)cyclobutanecarbonitrile]
40 | < 30 | CCNc1nc(Nc2ccnn2[C@H]2C[C@H](n3nccn3)C2)ncc1C(F)(F)F [Compound 182, N2-(1-((1R,3R)-3-(2H-1,2,3-triazol-2-yl)cyclobutyl)-1H-pyrazol-5-yl)-N4-ethyl-5-(trifluoromethyl)pyrimidine-2,4-diamine]
41 | < 30 | CCNc1nc(Nc2ccnn2[C@H]2C[C@H](n3ccnn3)C2)ncc1C(F)(F)F [Compound 183, N2-(1-((1R,3R)-3-(1H-1,2,3-triazol-1-yl)cyclobutyl)-1H-pyrazol-5-yl)-N4-ethyl-5-(trifluoromethyl)pyrimidine-2,4-diamine]
42 | < 30 | [2H]C([2H])([2H])n1nc([C@@]23C[C@@H]2COC3=O)cc1Nc1ncc(C(F)(F)F)c(NCC)n1 [Compound 184]
43 | < 30 | [2H]C([2H])([2H])n1nc([C@]23C[C@H]2COC3=O)cc1Nc1ncc(C(F)(F)F)c(NCC)n1 [Compound 185]
44 | 30 to 60 | CCNc1nc(Nc2ccnn2[C@H]2C[C@@H](n3nccn3)C2)ncc1C(F)(F)F [Compound 188]
45 | 30 to 60 | CCNc1nc(Nc2ccnn2[C@H]2C[C@@H](n3ccnn3)C2)ncc1C(F)(F)F [Compound 189]
46 | < 30 | CCNc1nc(Nc2ccnn2[C@H]2C[C@H](F)C2)ncc1C(F)(F)F [Compound 190]
47 | < 30 | CCNc1nc(Nc2cc(C(C)(C)O)nn2C2CCC2)ncc1C(F)(F)F [Compound 191]
48 | < 30 | CCNc1nc(Nc2cc(C(C)(C)OC)nn2C2CCC2)ncc1C(F)(F)F [Compound 192]
49 | 30 to 60 | [2H]C([2H])([2H])n1nc(C2CCOCC2)cc1Nc1ncc(C(F)(F)F)c(NCC)n1 [Compound 193]
50 | < 30 | CCNc1nc(Nc2cn(C3(C)CCCC3=O)nc2C)ncc1C(F)(F)F (stereo not drawn) [Compound 194, 2-[4-[[4-(ethylamino)-5-(trifluoromethyl)pyrimidin-2-yl]amino]-3-methyl-pyrazol-1-yl]-2-methyl-cyclopentanone]
51 | < 30 | CNc1nc(Nc2cn(C3(C)CCCC3=O)nc2C)ncc1C(F)(F)F (stereo not drawn) [Compound 195]
52 | < 30 | CCNc1nc(Nc2cn(C3CC3)nc2[C@H]2C[C@H](n3nccn3)C2)ncc1C(F)(F)F [Compound 196]
53 | < 30 | CCNc1nc(Nc2cn(C3CC3)nc2[C@H]2C[C@@H](n3nccn3)C2)ncc1C(F)(F)F [Compound 197]
54 | < 30 | CNc1nc(Nc2cn(C3CC3)nc2[C@H]2C[C@H](n3nccn3)C2)ncc1C(F)(F)F [Compound 198]
55 | 30 to 60 | CNc1nc(Nc2cn(C3CC3)nc2[C@H]2C[C@@H](n3nccn3)C2)ncc1C(F)(F)F [Compound 199]

Row | SMILES | IC50 [nM]
56 | CNc1nc(Nc2cc([C@]34C[C@H]3COC4=O)nn2C2CC2)ncc1C(F)(F)F [Compound 168] | < 30
57 | [2H]C([2H])([2H])n1nc(C2(C)CCCO2)cc1Nc1ncc(C(F)(F)F)c(NCC)n1 (stereo not drawn) [Compound 186] | < 30
